The source made the active and inactive calls.
Key:
[1] = target: T1, Oxysterols receptor LXR-beta (Homo sapiens, UniProt P55055); type: functional, cell-based;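 note: agonist activity at LXR measured by a cell-based luminescence readout across a dose range, run as a counterscreen for daf-12 agonists; HEK293 cells with Gal4-LXR fusion and GAL4-driven luciferase reporter; potency for activation of Gal4-LXR reporter so compounds are agonists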
T1 sequence (P55055 whole entry): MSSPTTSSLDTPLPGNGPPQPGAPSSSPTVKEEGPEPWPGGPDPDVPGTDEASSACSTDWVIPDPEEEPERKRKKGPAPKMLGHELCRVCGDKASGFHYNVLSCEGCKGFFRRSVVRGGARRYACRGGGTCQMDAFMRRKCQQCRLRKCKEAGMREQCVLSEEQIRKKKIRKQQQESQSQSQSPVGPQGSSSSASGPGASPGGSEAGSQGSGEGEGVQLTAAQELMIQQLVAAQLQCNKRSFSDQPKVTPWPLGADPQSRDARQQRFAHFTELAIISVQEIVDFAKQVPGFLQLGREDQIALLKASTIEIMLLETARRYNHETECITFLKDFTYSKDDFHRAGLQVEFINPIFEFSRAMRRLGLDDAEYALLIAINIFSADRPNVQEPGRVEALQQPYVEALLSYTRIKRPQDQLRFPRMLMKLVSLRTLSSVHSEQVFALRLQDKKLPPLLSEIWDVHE

[2] = target: T2, Long-chain-fatty-acid--AMP ligase FadD28 (Mycobacterium tuberculosis, UniProt P9WQ59); experiment: Fluorescence polarization aasay to screen for inhibitors that compete for the binding of FadD28 to a bisubstrate Measured in Biochemical System Using Plate Reader - 2147-01_Inhibitor_Dose_CherryPick_Activity.; type: functional, Mycobacterium tuberculosis H37Rv
T2 sequence (P9WQ59 whole entry): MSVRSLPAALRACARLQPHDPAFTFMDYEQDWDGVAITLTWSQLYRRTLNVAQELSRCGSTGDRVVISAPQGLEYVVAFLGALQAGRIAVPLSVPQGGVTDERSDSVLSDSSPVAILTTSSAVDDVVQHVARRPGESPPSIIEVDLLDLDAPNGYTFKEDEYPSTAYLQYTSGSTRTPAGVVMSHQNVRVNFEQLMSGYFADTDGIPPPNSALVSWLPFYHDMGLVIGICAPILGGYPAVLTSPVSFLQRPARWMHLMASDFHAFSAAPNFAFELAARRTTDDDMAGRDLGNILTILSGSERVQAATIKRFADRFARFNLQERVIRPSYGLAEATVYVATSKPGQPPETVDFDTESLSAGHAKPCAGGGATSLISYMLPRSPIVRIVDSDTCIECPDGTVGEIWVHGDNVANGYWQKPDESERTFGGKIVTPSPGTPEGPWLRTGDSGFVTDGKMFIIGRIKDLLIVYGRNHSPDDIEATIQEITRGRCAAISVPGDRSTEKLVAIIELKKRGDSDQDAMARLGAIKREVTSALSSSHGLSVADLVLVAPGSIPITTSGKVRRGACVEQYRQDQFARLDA

fMet-Leu-Phe receptor = target: T3, fMet-Leu-Phe receptor (Homo sapiens, UniProt P21462); experiment: FPR ligands, dose response (AID 519); type: functional
T3 sequence (P21462 whole entry): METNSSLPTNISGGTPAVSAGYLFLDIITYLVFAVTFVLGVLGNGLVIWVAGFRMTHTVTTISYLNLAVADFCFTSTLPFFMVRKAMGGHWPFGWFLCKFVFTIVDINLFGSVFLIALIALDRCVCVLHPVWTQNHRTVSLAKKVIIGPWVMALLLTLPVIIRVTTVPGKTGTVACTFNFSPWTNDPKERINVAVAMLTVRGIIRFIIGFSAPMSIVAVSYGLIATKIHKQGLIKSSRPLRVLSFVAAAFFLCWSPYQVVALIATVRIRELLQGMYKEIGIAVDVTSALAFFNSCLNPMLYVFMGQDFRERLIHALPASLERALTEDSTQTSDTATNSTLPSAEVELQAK

Caspase-6 = target: T4, Caspase-6 (Homo sapiens, UniProt P55212); experiment: human caspase-6 inhibitors, dose response, biochemical, VEID-R110 fluorescence, cherry-pick (AID 720632)
T4 sequence (P55212 whole entry): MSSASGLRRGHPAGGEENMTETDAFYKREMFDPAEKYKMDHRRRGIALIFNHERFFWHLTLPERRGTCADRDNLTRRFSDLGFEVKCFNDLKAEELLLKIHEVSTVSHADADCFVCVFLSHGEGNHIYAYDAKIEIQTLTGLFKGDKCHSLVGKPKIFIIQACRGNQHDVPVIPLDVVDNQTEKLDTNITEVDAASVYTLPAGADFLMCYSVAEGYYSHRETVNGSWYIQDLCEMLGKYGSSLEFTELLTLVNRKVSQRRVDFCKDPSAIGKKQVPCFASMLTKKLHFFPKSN

[3] = HepG2 cell cytotoxicity, dose response, cytotoxicity control for Shn3 inhibitor project, CellTiter-Glo, cherry-picked (AID 624134); type: functional, cell-based
Protein Wnt-3a = Protein Wnt-3a (Mus musculus, UniProt P27467); experiment: Wnt3a-driven reporter signaling inhibition, dose response, selectivity assay for Gli-SUFU antagonist project, Wnt-LIGHT cells, luminescence (AID 651570); type: functional; details: read-out: IC50_Mean;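 note: Wnt-LIGHT reporter cells stimulated with conditioned medium from Wnt3a-producing cells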
[4] = Shn3 3'UTR reporter inhibitors, dose response, cell-based, Clone20 osteoblasts, firefly luciferase, cherry-picked (AID 624132); type: functional;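 note: firefly luciferase luminescence from reporter carrying the Shn3 3'UTR in osteoblasts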
[5] = target: T5, COUP transcription factor 2 (Homo sapiens, UniProt P24468); experiment: Luminescence-based cell-based high throughput dose response assay to identify inhibitors of COUP-TFII (NR2F2).; type: functional;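 note: HEK293 cells transiently cotransfected with COUP-TFII expression vector and reporter; luciferase reporter luminescence driven by COUP-TFII from the pX2-168 reporter plasmid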
T5 sequence (P24468 whole entry): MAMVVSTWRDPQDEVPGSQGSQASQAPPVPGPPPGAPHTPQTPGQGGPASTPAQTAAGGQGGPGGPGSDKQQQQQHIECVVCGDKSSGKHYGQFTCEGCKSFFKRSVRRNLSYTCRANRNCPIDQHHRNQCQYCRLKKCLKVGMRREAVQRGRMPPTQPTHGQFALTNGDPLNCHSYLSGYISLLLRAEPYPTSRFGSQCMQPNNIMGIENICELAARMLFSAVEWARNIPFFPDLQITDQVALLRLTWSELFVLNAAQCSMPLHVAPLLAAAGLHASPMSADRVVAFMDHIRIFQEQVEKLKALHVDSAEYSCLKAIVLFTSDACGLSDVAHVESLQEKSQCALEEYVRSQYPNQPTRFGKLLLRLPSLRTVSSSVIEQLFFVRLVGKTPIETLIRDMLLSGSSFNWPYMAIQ

Protein Wnt-3a, sequence (P27467 whole entry): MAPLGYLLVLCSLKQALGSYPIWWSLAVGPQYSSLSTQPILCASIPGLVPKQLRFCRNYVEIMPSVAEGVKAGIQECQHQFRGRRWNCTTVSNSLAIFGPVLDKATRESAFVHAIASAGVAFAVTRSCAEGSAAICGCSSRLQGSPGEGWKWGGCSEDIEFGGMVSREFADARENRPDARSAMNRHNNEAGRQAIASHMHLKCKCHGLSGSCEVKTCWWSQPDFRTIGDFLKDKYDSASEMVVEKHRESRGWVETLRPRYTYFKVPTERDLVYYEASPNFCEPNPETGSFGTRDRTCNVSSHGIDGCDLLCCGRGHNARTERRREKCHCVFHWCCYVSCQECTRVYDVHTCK

c1ccc(CCSc2nccn2-c2ccccc2)cc1
EC50 [1]: > 67.6 µM (inactive)

O=C(N/N=C/c1c[nH]c2ccccc12)c1cc(Cl)ccc1O
AC50 [2]: 9.8 µM (active)

O=C(C1=C(O)C(=O)N(c2ncccn2)C1c1ccc(Cl)c(Cl)c1)c1ccco1 (stereo not given)
Ki (fMet-Leu-Phe receptor): > 66.7 µM (inactive)

COC(=O)c1[nH]c(C)c(C(=O)C2=C(O)C(=O)N(CCN3CCOCC3)C2c2cccnc2)c1C (stereo not given)
Ki (fMet-Leu-Phe receptor): 20.8 µM (inactive)

O=C(Nc1nnc(Cc2c[nH]c3ccccc23)s1)c1ccc(Cl)cc1Cl
AC50 (Caspase-6): 49.2 µM (active)

CC(C)(C)c1ccc(C(=O)Nn2c(CCC(=O)O)ccc2-c2cccs2)cc1
AC50 (Caspase-6): 45.1 µM (active)

CC(=O)c1cccc(NS(=O)(=O)c2ccc(-c3cnc(C4CC4)o3)cc2)c1
AC50 [3]: 47.3 µM (active) | IC50 (Protein Wnt-3a): 6.03 µM (active) | AC50 [4]: 5 µM (active) | IC50 [5]: 12.3 µM (inactive)

Source: ChEMBL document CHEMBL1201862, “PubChem BioAssay data set” (2004)
